{"source": "paper PMC12301034", "about": "“Design and Synthesis of Boronic Chalcones with Dual Anticancer and Anti-Inflammatory Activity” (Molecules, 2025)", "key": {"TNF": {"system": "TNF", "assay": "Anti-inflammatory assay, TNF in LPS-stimulated THP-1 cells (CBA)", "type": "cell-based, human", "experimental": "For this assay, THP-1 (BCRJ cód. 0234) cells were cultured in Roswell Park Memorial Institute (RPMI-1640, Sigma-Aldrich; Saint Louis, MO, USA) media supplemented with 2 mM L-glutamine, 1 mM sodium pyruvate, 1.50 g/L of sodium bicarbonate, and 10% fetal bovine serum. For obtaining Macrophage-like cells, 250,000 cells per well were plated in a 24-well cell culture plate. A total of 20 ng/mL of Forbol 12-miristato-13-acetato (PMA) was added to each well, and the cells were incubated for 48 h at 37 °C with 5% CO2. After the 48 h, the wells were washed with 1X PBS, and fresh RPMI-1640 media was added. The cells were then incubated for 24 h at 37 °C and 5% CO2. For the cell’s stimulations, after the 24 h, the well was washed with PBS and fresh RPMI1640 media without fetal bovine serum added. For the positive controls of the assay, 3 wells were stimulated with LPS (1 ng/µL) diluted in the same volume and media used for the drugs stimulation. Two different concentrations (2 and 4 µg/mL) were evaluated for each molecule, which were determined to be non-cytotoxic through a cell viability assay. After a 24 h period, the supernatant was removed and used in the cytokine quantification assay. A kit for inflammatory cytokines, BD® Cytometric Bead Array CBA Human Inflammatory, was employed for this assay, containing the following human cytokines: IL-8, IL-1β, IL-6, and TNF. Standard cytokines were prepared in 9 different concentrations: 1:256, 1:128, 1:64, 1:32, 1:16, 1:8, 1:4, 1:2, and 1:1 (“top standard”). Analysis was performed using a Flow Cytometer FACS Aria Fusion BD (Bioscence, Houston, TX, USA). Data analysis was conducted using Prism software (version 10.4.1)."}, "SCC-25 cells": {"system": "SCC-25 cells", "assay": "MTT cytotoxicity assay on SCC-25 cells", "type": "cell-based, human", "conditions": "Homo sapiens, SCC-25; MTT, 24 h incubation, mean SEM of three experiments", "source_text": "(§1) The SCC-25 (ATCC® CRL-1628™), Detroit-562 (ATCC® CCL-138™), and THP-1 (ATCC® TIB-202™) cells were purchased from Rio de Janeiro Cell Bank (Duque de Caxias, Brazil), and NOK-si was kindly provided by Prof. Carlos Rossa from the School of Dentistry—UNESP. All the cells were cultivated according to standard conditions. Human colorectal adenocarcinoma HCT116 cell lines (ATCC® CCL-247™) expressing p53 and its p53-null isogenic derivative (HCT116 p53^−/−) were provided by B. Vogelstein (The Johns Hopkins Kimmel Cancer Center, Baltimore, MD, USA).\n(§2) Cells (NOK-si, SCC-25, and Detroit-562) were grown in a DMEM medium (Dulbecco’s Modified Eagle Medium), supplemented according to the needs of each lineage, as recommended by its cell banks, with 2 mM L-glutamine, 10% or 20% fetal bovine serum (FBS), 1% antibiotic–antimycotic solution (5 mg/mL penicillin, 5 mg/mL streptomycin, and 10 mg/mL neomycin), 4.5 g/L of glucose, and 3.7 g/L of sodium bicarbonate (NaHCO3). All cell lines were cultured in flasks at 37 °C in 5% carbon dioxide (CO2) and 95% of relative humidity. The assays were conducted between the third- and the seventh-cell passage, with sub-cultures every 3–4 days to maintain exponential growth. The cell viability was checked using the trypan blue dye exclusion assay for all experiments, where over 95% of the cells were viable at the beginning of the tests. NOK-si, SCC-25, and Detroit-562 were initially thawed and cultured in 25 cm^2 cell culture flasks. Cell growth was monitored using a microscope, and the culture medium was changed periodically. Upon reaching confluency, cell dissociation was achieved by adding 5 mL of trypsin (Sigma-Aldrich, St Louis, MO, USA) and incubating the bottles in a CO2 incubator for 10 min. Subsequently, the cells were transferred to 15 mL Falcon tubes and centrifuged at 2000 rpm for 10 min. Cell counting was performed using a Countess II FL automated cell counter (ThermoFischer, Waltham, MA, USA). The cells were seeded at a density of 30,000 cells per well in 96-well plates. The plates were then incubated at 37 °C in 5% CO2 for 24 h. Following this, test compounds were incubated for another 24 h at 10 different concentrations: 50, 25, 12.5, 6.25, 3.12, 1.56, 0.78, 0.39, 0.19, and 0.097 µg/mL. After the specified time, MTT reagent (3 mg/mL) (Sigma-Aldrich, St Louis, MO, USA) dissolved in phenol-free RPMI 1640 was added and incubated for 4 h. The formed MTT crystals were solubilized using 2-propanol P.A. (Sigma-Aldrich, St Louis, MO, USA) with agitation. Absorbance was read at 562 nm using an EZ Read 400 microplate reader (Biochrom, Cambridge, UK) and ADAP 2.0 Biochrom software (version 2.0). IC50 values and graphs were calculated using Excel and Prism software (version 10.4.1). The MTT assay results were evaluated for normality using the Shapiro–Wilk test, followed by one-way ANOVA with Tukey’s post hoc test at a significance level of 5%."}, "[1]": {"assay": "Parallel artificial membrane permeability assay (PAMPA)", "type": "in vitro ADME", "experimental": "The parallel artificial membrane permeability assay (PAMPA) was performed using a 96-well pre-coated PAMPA plate system (Corning, Bedford, MA, USA). Solutions of test compounds and controls [metoprolol (Sigma-Aldrich, St. Louis, MO, USA) and nadolol (Sigma-Aldrich, St. Louis, MO, USA)] were prepared by diluting 10 mM stock solutions in DMSO with phosphate-buffered saline (PBS) at pH 6.5 to obtain a final concentration of 10 μM (final DMSO concentration ≤ 1%). The donor compartment was loaded with 300 μL of the prepared compound solutions, while the acceptor compartment received 200 μL of PBS pH 7.4. The plate was then assembled, and the system was incubated at 37 °C, with shaking at 100 rpm for 5 h. Samples of the initial donor solution (T0) were collected (10 μL) and transferred to an analysis plate. A quenching solution [10% water and 90% methanol: acetonitrile (50:50) + 50 nM tolbutamide (Sigma-Aldrich, St. Louis, MO, USA) as internal standard] was added (300 μL), along with 60 μL of PBS buffer pH 6.5. The analysis plate was stored at −20 °C. At the end of the incubation period, samples were collected from the donor and acceptor compartments and added to the analysis plate, following the same quenching procedure. The final concentrations of the compounds in the donor, acceptor, and T0 wells were quantified by an LCMS-8045 system (Shimazu, Kyoto, Japan). […]"}, "NOK-si cells": {"system": "NOK-si cells", "assay": "MTT cytotoxicity assay on NOK-si normal oral keratinocytes", "type": "cell-based", "conditions": "24 h incubation", "source_text": "as §1, §2"}, "Detroit-562 cells": {"system": "Detroit-562 cells", "assay": "MTT cytotoxicity assay on Detroit-562 cells", "type": "cell-based", "source_text": "as §1\nCells (NOK-si, SCC-25, and Detroit-562) were grown in a DMEM medium (Dulbecco’s Modified Eagle Medium), supplemented according to the needs of each lineage, as recommended by its cell banks, with 2 mM L-glutamine, 10% or 20% fetal bovine serum (FBS), 1% antibiotic–antimycotic solution (5 mg/mL penicillin, 5 mg/mL streptomycin, and 10 mg/mL neomycin), 4.5 g/L of glucose, and 3.7 g/L of sodium bicarbonate (NaHCO3). All cell lines were cultured in flasks at 37 °C in 5% carbon dioxide (CO2) and 95% of relative humidity. The assays were conducted between the third- and the seventh-cell passage, with sub-cultures every 3–4 days to maintain exponential growth. The cell viability was checked using the trypan blue dye exclusion assay for all experiments, where over 95% of the cells were viable at the beginning of the tests. NOK-si, SCC-25, and Detroit-562 were initially thawed and cultured in 25 cm^2 cell culture flasks. Cell growth was monitored using a microscope, and the culture medium was changed periodically. […] Absorbance was read at 562 nm using an EZ Read 400 microplate reader (Biochrom, Cambridge, UK) and ADAP 2.0 Biochrom software (version 2.0). IC50 values and graphs were calculated using Excel and Prism software (version 10.4.1). The MTT assay results were evaluated for normality using the Shapiro–Wilk test, followed by one-way ANOVA with Tukey’s post hoc test at a significance level of 5%."}}, "note": "Entries after “also recorded” stand apart in the source; their conditions may differ."}
{"compound": "COc1cccc(C(=O)/C=C/c2cccc(B(O)O)c2)c1", "note": "[Compound 5, (E)-(3-(3-(3-methoxyphenyl)-3-oxoprop-1-en-1-yl)phenyl)boronic acid]", "values": [{"measurement": "TNF levels relative to untreated THP-1 cells", "setting": "TNF; 7.1 μM", "result": "reducing them below those of untreated THP-1 cells"}, {"measurement": "reduction of TNF levels", "setting": "TNF; 2 and 4 µg/mL, 24 h", "result": "significantly reduced; also recorded: pronounced reduction"}, {"measurement": "IC50", "setting": "SCC-25 cells", "result": "17.9 ± 0.35", "unit": "µM"}, {"measurement": "permeability class", "setting": "[1]", "result": "high passive permeability"}, {"measurement": "Papp at 5 h, 10 μM", "setting": "[1]; donor pH 6.5, acceptor pH 7.4, 5 h, 37 °C, read-out: PAMPA (Mean Pe)", "result": 17.5, "unit": "×10⁻⁶ cm/s"}, {"measurement": "NOK-si IC50", "setting": "NOK-si cells", "result": "58.9 ± 10.63", "unit": "µM"}, {"measurement": "CC50", "setting": "NOK-si cells; Keratinocyte, read-out: NOK-si IC50", "result": 58.9, "unit": "µM"}, {"measurement": "IC50", "setting": "Detroit-562 cells; Homo sapiens, MTT, 24 h incubation, Detroit-562 metastatic pharyngeal cancer model", "result": "33.1 ± 5.1", "unit": "µM"}, {"measurement": "SI against the metastatic cell line (NOK-si vs Detroit-562)", "setting": "Detroit-562 cells; selectivity index", "result": "greater than 1.7"}]}
